Data published in publication PMC11489721 (Communications Chemistry, 2024).
pEC50, pIC50, pKd, pKi: −log10 of the molar value. Where a name gives a salt, the structure may show the parent alone. Read-outs that look alike come from different tables or passages of the source.

Legend:
[1] = target: T1, heterodimeric receptor (T1R2/T1R3) (Homo sapiens, UniProt Q7RTX0+Q8TE23); test: Effect of GTP and GDP on radioligand binding; details: for Inhibition of [3H]-Lactisole binding: radioligand [3H]-lactisole
T1 sequence (Q8TE23 20-839): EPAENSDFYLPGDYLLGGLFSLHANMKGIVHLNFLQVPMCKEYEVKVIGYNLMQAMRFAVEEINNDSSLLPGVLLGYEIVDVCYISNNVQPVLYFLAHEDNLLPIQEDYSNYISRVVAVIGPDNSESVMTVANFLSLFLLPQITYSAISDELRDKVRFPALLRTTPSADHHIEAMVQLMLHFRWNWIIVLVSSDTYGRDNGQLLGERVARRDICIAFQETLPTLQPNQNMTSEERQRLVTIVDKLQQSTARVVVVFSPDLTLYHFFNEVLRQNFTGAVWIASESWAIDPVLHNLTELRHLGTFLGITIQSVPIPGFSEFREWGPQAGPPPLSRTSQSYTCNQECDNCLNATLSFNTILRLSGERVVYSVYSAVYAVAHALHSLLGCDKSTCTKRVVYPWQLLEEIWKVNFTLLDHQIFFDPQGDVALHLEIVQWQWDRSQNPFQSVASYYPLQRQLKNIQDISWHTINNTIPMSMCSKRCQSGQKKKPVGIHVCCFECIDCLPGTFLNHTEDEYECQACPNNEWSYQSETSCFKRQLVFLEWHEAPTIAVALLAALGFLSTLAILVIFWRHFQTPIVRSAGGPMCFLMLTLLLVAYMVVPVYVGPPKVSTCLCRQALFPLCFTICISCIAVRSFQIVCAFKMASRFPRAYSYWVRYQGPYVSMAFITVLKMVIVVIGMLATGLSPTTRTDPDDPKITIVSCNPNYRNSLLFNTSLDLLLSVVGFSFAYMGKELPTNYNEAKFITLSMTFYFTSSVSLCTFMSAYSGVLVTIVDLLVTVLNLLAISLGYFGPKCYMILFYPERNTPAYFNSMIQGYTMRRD
T1 sequence (Q7RTX0 21-852): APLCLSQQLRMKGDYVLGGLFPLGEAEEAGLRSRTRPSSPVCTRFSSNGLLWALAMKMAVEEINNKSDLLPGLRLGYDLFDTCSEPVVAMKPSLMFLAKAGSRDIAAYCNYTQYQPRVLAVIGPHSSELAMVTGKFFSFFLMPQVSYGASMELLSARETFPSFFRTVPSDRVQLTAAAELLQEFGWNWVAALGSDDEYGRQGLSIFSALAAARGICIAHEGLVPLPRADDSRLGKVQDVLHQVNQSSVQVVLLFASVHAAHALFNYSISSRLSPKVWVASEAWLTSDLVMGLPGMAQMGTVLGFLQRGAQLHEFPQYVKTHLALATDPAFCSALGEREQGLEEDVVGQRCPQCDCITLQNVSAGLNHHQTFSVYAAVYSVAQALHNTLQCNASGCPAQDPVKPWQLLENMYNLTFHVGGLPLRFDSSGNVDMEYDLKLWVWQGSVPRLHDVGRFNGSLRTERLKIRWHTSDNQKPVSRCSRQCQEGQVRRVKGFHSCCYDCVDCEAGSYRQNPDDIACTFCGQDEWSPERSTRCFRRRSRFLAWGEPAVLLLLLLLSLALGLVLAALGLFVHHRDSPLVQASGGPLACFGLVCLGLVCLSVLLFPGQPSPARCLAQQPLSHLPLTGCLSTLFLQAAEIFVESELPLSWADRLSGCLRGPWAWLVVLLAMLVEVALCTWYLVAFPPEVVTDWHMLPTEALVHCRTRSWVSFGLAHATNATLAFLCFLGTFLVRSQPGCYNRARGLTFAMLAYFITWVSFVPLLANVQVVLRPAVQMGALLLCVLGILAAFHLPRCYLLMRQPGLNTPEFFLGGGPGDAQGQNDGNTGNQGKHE

[2] = target: T2, human T1R2/T1R3 heterodimer sweet taste receptors (Homo sapiens, UniProt Q7RTX0+Q8TE23); test: FLOWER label-free binding to stabilized receptor on microtoroid
T2 sequence (Q8TE23 20-839): T1 sequence (Q8TE23 20-839)
T2 sequence (Q7RTX0 21-852): T1 sequence (Q7RTX0 21-852)

[3] = cited from earlier work
[4] = target: T3, heterodimeric receptor (T1R2/T1R3), TMD2 binding site (Homo sapiens, UniProt Q7RTX0+Q8TE23); test: Competition binding with [3H]-Perillartine as radioligand; details: for Ki (mM): radiolabeled ligand perillartine, TMD2 binding, Table 6; for Competitive inhibition with perillartine: radioligand [3H]-Perillartine
T3 sequence (Q8TE23 20-839): T1 sequence (Q8TE23 20-839)
T3 sequence (Q7RTX0 21-852): T1 sequence (Q7RTX0 21-852)

[5] = target: T4, heterodimeric receptor (T1R2/T1R3), presumed VFD2 binding site (Homo sapiens, UniProt Q7RTX0+Q8TE23); test: Competition binding with [3H]-Rebaudioside B as radioligand; details: for Competitive inhibition with RebB: radioligand [3H]-Rebaudioside B; for Ki (mM): radiolabeled ligand RebB, VFD2 binding, Table 5
T4 sequence (Q8TE23 20-839): T1 sequence (Q8TE23 20-839)
T4 sequence (Q7RTX0 21-852): T1 sequence (Q7RTX0 21-852)

[6] = target: T5, heterodimeric receptor (T1R2/T1R3), TMD2 site (Homo sapiens, UniProt Q7RTX0+Q8TE23); test: Kinetic binding of [3H]-Perillartine, taste bud cell membranes
T5 sequence (Q8TE23 20-839): T1 sequence (Q8TE23 20-839)
T5 sequence (Q7RTX0 21-852): T1 sequence (Q7RTX0 21-852)

[7] = target: T6, heterodimeric receptor (T1R2/T1R3), TMD3 binding site (Homo sapiens, UniProt Q7RTX0+Q8TE23); test: Competition binding with [3H]-lactisole as radioligand; details: for Competitive inhibition with lactisole: radioligand [3H]-lactisole
T6 sequence (Q8TE23 20-839): T1 sequence (Q8TE23 20-839)
T6 sequence (Q7RTX0 21-852): T1 sequence (Q7RTX0 21-852)

[8] = target: human T1R2/T1R3 sweet taste receptor; details: HEK293 stably expressing T1R2/T1R3, FLIPR calcium mobilization; cited from earlier work
[9] = target: human sweet taste receptor; details: FLIPR assay; cited from earlier work
[10] = target: human sweet taste receptor; details: DMR assay; cited from earlier work
bovine taste bud cells = details: cited from earlier work
[11] = target: T7, heterodimeric receptor (T1R2/T1R3), VFD2 and VFD3 (Homo sapiens, UniProt Q7RTX0+Q8TE23); test: Kinetic binding of [14C]-sucrose, taste bud cell membranes
T7 sequence (Q8TE23 20-839): T1 sequence (Q8TE23 20-839)
T7 sequence (Q7RTX0 21-852): T1 sequence (Q7RTX0 21-852)

human T1R2 = details: human T1R2, intrinsic fluorescence; cited from earlier work
[12] = tested on: human T1R2/T1R3 heterodimers; details: transiently transfected, fluorescent calcium biosensor; cited from earlier work
[13] = target: T8, heterodimeric receptor (T1R2/T1R3), presumed VFD2 site (Homo sapiens, UniProt Q7RTX0+Q8TE23); test: Kinetic binding of [3H]-Rebaudioside B, taste bud cell membranes
T8 sequence (Q8TE23 20-839): T1 sequence (Q8TE23 20-839)
T8 sequence (Q7RTX0 21-852): T1 sequence (Q7RTX0 21-852)

[14] = from kinetic binding, ratio koff/kon
[15] = read-out: binding constant Kd, TMD3 open (+C20), 10 µM C20
[16] = read-out: binding constant Kd, TMD3 open (No C20)

Nc1nc2c(ncn2[C@@H]2O[C@H](COP(=O)(O)OP(=O)(O)O)[C@@H](O)[C@H]2O)c(=O)[nH]1 [GDP, guanosine diphosphate]
Inhibition of [3H]-Lactisole binding [1]: No inhibition
pIC50 ([1]; read-out: IC50, inhibition of Rebaudioside B binding, radioligand [3H]-Rebaudioside B): 2.67

C=C1C[C@@]23CC[C@H]4[C@@](C)(CCC[C@@]4(C)C(=O)O[C@@H]4O[C@H](CO)[C@@H](O)[C@H](O)[C@H]4O)[C@@H]2CC[C@]1(O[C@@H]1O[C@H](CO)[C@@H](O)[C@H](O)[C@H]1O)C3 [Rubu, Rubusoside]
Hill slope nH ([2]; TMD2 open (No C20)): 0.36
Hill slope nH ([2]; TMD3 open (No C20)): 0.20
pKd ([2]; binding constant Kd, TMD2 open (No C20)): 5.62
pKd ([2]; binding constant Kd, TMD3 open (+C20), 10 µM C20): 7.59
pKd ([2]; binding constant Kd, TMD3 open (No C20)): 5.52
Sweetness at 300 ppm [3]: 3.87

Rebaudioside B [RebB]
Sweetness at 300 ppm [3]: 5.20

N=C(N)NC(=O)c1nc(Cl)c(N)nc1N [Amiloride, amiloride HCL]
Ki (mM) [4]: Ambiguous
Competitive inhibition with perillartine [4]: did not show inhibition
pKi [5]: 2.87
Competitive inhibition with RebB [5]: positive inhibition

Nc1nc2c(ncn2[C@@H]2O[C@H](COP(=O)(O)OP(=O)(O)OP(=O)(O)O)[C@@H](O)[C@H]2O)c(=O)[nH]1 [GTP, guanosine triphosphate]
pIC50 ([1]; IC50, inhibition of Rebaudioside B binding, radioligand [3H]-Rebaudioside B): 2.04
pIC50 ([1]; IC50, inhibition of perillartine binding, radioligand [3H]-Perillartine): 1.88
Inhibition of [3H]-Lactisole binding [1]: No inhibition

[^3H]-Perillartine [[^3H]-Perrilartine]
kon ([6]; [3H]-Perillartine radioligand): 3071.47 M⁻¹ s⁻¹
koff ([6]; dissociation by excess cold Perillartine at 60 min): 0.008895 s⁻¹
pKd [6, 14]: 5.54

C=C1C[C@@]23CC[C@H]4[C@@](C)(CCC[C@@]4(C)C(=O)O[C@@H]4O[C@H](CO)[C@@H](O)[C@H](O[C@@H]5O[C@H](CO)[C@@H](O)[C@H](O)[C@H]5O)[C@H]4O[C@@H]4O[C@H](CO)[C@@H](O)[C@H](O)[C@H]4O)[C@@H]2CC[C@]1(O[C@@H]1O[C@H](CO)[C@@H](O)[C@H](O[C@@H]2O[C@H](CO)[C@@H](O)[C@H](O)[C@H]2O)[C@H]1O[C@@H]1O[C@H](CO)[C@@H](O)[C@H](O)[C@H]1O)C3 [RebM, Rebaudioside M]
Ki (mM) [4]: Ambiguous
Hill slope nH ([2]; TMD2 open (+C20)): 0.75
Hill slope nH ([2]; TMD2 open (No C20)): 0.30
Hill slope nH ([2]; TMD3 open (No C20)): 0.55
pKd ([2]; read-out: binding constant Kd, TMD2 open (+C20), 10 µM C20): 9.55
pKd [2, 15]: 8.59
pKd [2, 16]: 7.66
Ki (mM) [5]: Ambiguous
Competitive inhibition with RebB [5]: ambiguous binding inhibition
pKi ([7]; radiolabeled ligand lactisole, TMD3 binding, Table 4): 1.93
Competitive inhibition with lactisole [7]: positive inhibition
pEC50 [8]: 4.53
Sweetness at 300 ppm [3]: 6.55

C=C1C[C@@]23CC[C@H]4[C@@](C)(CCC[C@@]4(C)C(=O)O[C@@H]4O[C@H](CO)[C@@H](O)[C@H](O)[C@H]4O)[C@@H]2CC[C@]1(O[C@@H]1O[C@H](CO)[C@@H](O)[C@H](O[C@@H]2O[C@H](CO)[C@@H](O)[C@H](O)[C@H]2O)[C@H]1O[C@@H]1O[C@H](CO)[C@@H](O)[C@H](O)[C@H]1O)C3 [RebA]
pEC50 [9]: 4.54
pEC50 [10]: 4.24
pEC50 [8]: 4.84
Sweetness at 300 ppm [3]: 5.90

CC(C)Oc1ccc(NC(=S)NCc2ccc[nH]2)cc1 [S819, 1-((1H-pyrrol-2-yl)methyl)-3-(4-isopropoxyphenyl)thiourea]
pEC50 [9]: 7.15
pEC50 [10]: 6.15
Ki (mM) [4]: Ambiguous
Competitive inhibition with perillartine [4]: did not show inhibition
Ki (mM) [5]: Ambiguous
Competitive inhibition with RebB [5]: did not show strong inhibition
Competitive inhibition with lactisole [7]: do not compete

OC[C@H]1O[C@@](CO)(O[C@H]2O[C@H](CO)[C@@H](O)[C@H](O)[C@H]2O)[C@@H](O)[C@@H]1O [sucrose]
pKd (bovine taste bud cells): 2.96

C=C1C[C@@]23CC[C@H]4[C@@](C)(CCC[C@@]4(C)C(=O)O[C@@H]4O[C@H](CO)[C@@H](O)[C@H](O)[C@H]4O[C@@H]4O[C@H](CO)[C@@H](O)[C@H](O)[C@H]4O)[C@@H]2CC[C@]1(O[C@@H]1O[C@H](CO)[C@@H](O)[C@H](O[C@@H]2O[C@H](CO)[C@@H](O)[C@H](O)[C@H]2O)[C@H]1O[C@@H]1O[C@H](CO)[C@@H](O)[C@H](O)[C@H]1O)C3 [RebD, Rebaudioside D]
Hill slope nH ([2]; TMD3 open (No C20)): 0.22
pKd [2, 15]: 10.34
pKd [2, 16]: 8.55
Sweetness at 300 ppm [3]: 6.15

OC[C@H]1OC(O)[C@H](O)[C@@H](O)[C@@H]1O (stereo partly shown) [glucose]
pKd (bovine taste bud cells): 2.47

OC[C@H]1O[C@@](CO)(O[C@H]2O[C@H](CO)[C@@H](O)[C@H](O)[C@H]2O)[C@@H](O)[C@@H]1O [[^14C]-sucrose, [^14C]-Sucrose]
kon ([11]; [14C]-sucrose radioligand): 0.251 M⁻¹ s⁻¹
koff ([11]; dissociation by excess cold sucrose at 60 min): 0.003105 s⁻¹
pKd [11, 14]: 1.91

C=C(C)[C@@H]1CC=C(/C=N/O)CC1 [Perillartine]
pKd (human T1R2): 3.43
pEC50 [12]: 5.60
pEC50 [8]: 5.84

[^3H]-Rebaudioside B
kon ([13]; [3H]-Rebaudioside B radioligand, room temperature): 1.53 M⁻¹ s⁻¹
koff ([13]; dissociation by 1000-fold excess cold Rebaudioside B at 60 min): 0.008868 s⁻¹
pKd [13, 14]: 2.24
